Test results taken from patent US20060069132A1, “Azolecarboxamide herbicides” (priority 2004, published 2006).

Key:
morningglory [1] = assay: Test B pre-/postemergence herbicide test; format: in vivo, Ipomoea coccinea; conditions: for Plant response rating, Morningglory: preemergence; for Morningglory plant response rating: postemergence, visual rating, scale 0 (no effect) to 100 (complete control)
Method in brief: (§1)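 Test chemicals in a non-phytotoxic solvent mixture with surfactant were applied preemergence to seeded species and postemergence to plants 2-18 cm tall (1- to 4-leaf stage); rice and barnyardgrass were also tested in a flooded paddy at the 2-leaf stage. Visual rating versus controls after 13-15 days in greenhouse, scale 0 (no effect) to 100 (complete control).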

Surinam grass = assay: Test B pre-/postemergence herbicide test; format: in vivo, Urochloa decumbens; conditions: for Plant response rating, Surinam Grass: preemergence; for Surinam Grass plant response rating: postemergence, visual rating, scale 0 (no effect) to 100 (complete control)
Method in brief: (§2)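 Response was scored visually 13 to 15 days after treatment against untreated greenhouse controls, 0 meaning no effect and 100 complete control. Formulations (solvent mixture plus surfactant) went onto soil after planting, onto foliage of 1- to 4-leaf plants, and onto 2-leaf plants in a flooded paddy set including rice and barnyardgrass.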

ducksalad = assay: Test B flooded paddy test; format: in vivo, Heteranthera limosa; conditions: 1000 g ai/ha, visual rating, scale 0 to 100 (0 no effect, 100 complete control), 13 to 15 days
Method in brief: (§3)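 Paddy species grown to the 2-leaf stage under flooding; blackgrass sprayed postemergence at 2–18 cm (1- to 4-leaf stage). Plants kept in a greenhouse for 13 to 15 days, then visually rated against controls on 0 (no effect) to 100 (complete control).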

velvetleaf [2] = assay: Test B pre-/postemergence herbicide test; format: in vivo, Abutilon theophrasti; conditions: for Plant response rating, Velvetleaf: preemergence; for Velvetleaf plant response rating: postemergence, visual rating, scale 0 (no effect) to 100 (complete control)
Method in brief: as §2

rice [3] = assay: Test B flooded paddy test; format: in vivo, Oryza sativa; conditions: 1000 g ai/ha, visual rating, scale 0 to 100 (0 no effect, 100 complete control), 13 to 15 days
Method in brief: (§4)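 Postemergence plants were sprayed with formulated test chemicals at 2 to 18 cm height (1- to 4-leaf stage); paddy species were grown to the 2-leaf stage. After 13 to 15 days in a greenhouse, injury was rated visually against untreated controls on a 0–100 scale (0 = no effect, 100 = complete control).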

barnyardgrass [4] = assay: Test A pre-/postemergence herbicide test; format: in vivo, Echinochloa crus-galli
Method in brief: (§5)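 Pre: seeded sandy loam, directed soil spray, compound in non-phytotoxic solvent + surfactant. Post: 1–2-leaf plants (2–10 cm), sprayed to runoff. Greenhouse ~10 d; visual injury vs untreated, 0–100 scale.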

large crabgrass [5] = assay: Test B pre-/postemergence herbicide test; format: in vivo, Digitaria sanguinalis; conditions: for Plant response rating, Crabgrass, Large: preemergence; for Crabgrass, Large plant response rating: postemergence, visual rating, scale 0 (no effect) to 100 (complete control)
Method in brief: as §2

large crabgrass [6] = assay: Test A pre-/postemergence herbicide test; format: in vivo, Digitaria sanguinalis
Method in brief: as §5

corn = assay: Test B pre-/postemergence herbicide test; format: in vivo, Zea mays; conditions: for Plant response rating, Corn: preemergence; for Corn plant response rating: postemergence, visual rating, scale 0 (no effect) to 100 (complete control)
Method in brief: as §2

blackgrass = assay: Test B postemergence herbicide test; format: in vivo, Alopecurus myosuroides; conditions: postemergence, visual rating, scale 0 (no effect) to 100 (complete control)
Method in brief: as §3

morningglory [7] = assay: Test A pre-/postemergence herbicide test; format: in vivo, Ipomoea spp.
Method in brief: as §5

[8] = tested on: small flower umbrella sedge; assay: Test B flooded paddy test; format: in vivo, Cyperus difformis; conditions: 1000 g ai/ha, visual rating, scale 0 to 100 (0 no effect, 100 complete control), 13 to 15 days
Method in brief: as §3

rice [9] = assay: Test B pre-/postemergence herbicide test; format: in vivo, Oryza sativa; conditions: preemergence
Method in brief: as §2

wild oat = assay: Test B postemergence herbicide test; format: in vivo, Avena fatua; conditions: postemergence, visual rating, scale 0 (no effect) to 100 (complete control)
Method in brief: as §4

cocklebur = assay: Test B pre-/postemergence herbicide test; format: in vivo, Xanthium strumarium; conditions: for Plant response rating, Cocklebur: preemergence; for Cocklebur plant response rating: postemergence, visual rating, scale 0 (no effect) to 100 (complete control)
Method in brief: as §1

barnyardgrass [10] = assay: Test B pre-/postemergence herbicide test; format: in vivo, Echinochloa crus-galli; conditions: for Plant response rating, Barnyardgrass: preemergence; for Barnyardgrass plant response rating: postemergence, visual rating, scale 0 (no effect) to 100 (complete control)
Method in brief: as §1

velvetleaf [11] = assay: Test A pre-/postemergence herbicide test; format: in vivo, Abutilon theophrasti
Method in brief: as §5

giant foxtail [12] = assay: Test B pre-/postemergence herbicide test; format: in vivo, Setaria faberi; conditions: for Plant response rating, Foxtail, Giant: preemergence; for Foxtail, Giant plant response rating: postemergence, visual rating, scale 0 (no effect) to 100 (complete control)
Method in brief: as §2

redroot pigweed = assay: Test A pre-/postemergence herbicide test; format: in vivo, Amaranthus retroflexus
Method in brief: as §5

barnyardgrass [13] = assay: Test B flooded paddy test; format: in vivo, Echinochloa crus-galli; conditions: 1000 g ai/ha, visual rating, scale 0 to 100 (0 no effect, 100 complete control), 13 to 15 days
Method in brief: as §3

wheat = assay: Test B postemergence herbicide test; format: in vivo, Triticum aestivum; design: key to Wheat plant response rating: 0 = no effect, 100 = complete control; conditions: postemergence, 500 g ai/ha; visual rating, scale 0 (no effect) to 100 (complete control)
Method in brief: as §4

pigweed = assay: Test B pre-/postemergence herbicide test; format: in vivo, Amaranthus retroflexus; conditions: for Plant response rating, Pigweed: preemergence; for Pigweed plant response rating: postemergence, visual rating, scale 0 (no effect) to 100 (complete control)
Method in brief: as §2

giant foxtail [14] = assay: Test A pre-/postemergence herbicide test; format: in vivo, Setaria faberi
Method in brief: as §5

lambsquarters = assay: Test B pre-/postemergence herbicide test; format: in vivo, Chenopodium album; conditions: for Plant response rating, Lambsquarters: preemergence; for Lambsquarters plant response rating: postemergence, visual rating, scale 0 (no effect) to 100 (complete control)
Method in brief: as §2

[15] = 500 g ai/ha, visual rating 0-100, 0 no effect, 100 complete control
[16] = 125 g ai/ha, 0 to 100 scale, 0 is no effect, 100 is complete control
[17] = Postemergence, 500 g ai/ha, 0 to 100 scale, 0 no effect, 100 complete control
[18] = Postemergence, 2000 g ai/ha, 0 to 100 scale, 0 no effect, 100 complete control
[19] = Preemergence, 500 g ai/ha, visual rating, 0 to 100 scale (0 no effect, 100 complete control)
[20] = Preemergence, 2000 g ai/ha, visual rating, 0 to 100 scale (0 no effect, 100 complete control)
[21] = preemergence, 500 g ai/ha, visual injury, 0 to 100 scale (0 no effect, 100 complete control)

CCn1nc(C(C)(C)C)cc1C(=O)Nc1nc(OC)cc(OC)n1 [Compound 166]
Plant response rating, Morningglory (morningglory [1]; [15]): 0 | Morningglory plant response rating (morningglory [1]; 125 g ai/ha): 0 | Morningglory plant response rating (morningglory [1]; 500 g ai/ha): 0 | Plant response rating, Morningglory (morningglory [1]; [16]): 0 | Plant response rating, Surinam Grass (Surinam grass; [15]): 0 | Surinam Grass plant response rating (Surinam grass; 125 g ai/ha): 0 | Surinam Grass plant response rating (Surinam grass; 500 g ai/ha): 0 | Plant response rating, Surinam Grass (Surinam grass; [16]): 0 | Ducksalad plant response rating (ducksalad): 0 | Plant response rating, Velvetleaf (velvetleaf [2]; [15]): 0 | Velvetleaf plant response rating (velvetleaf [2]; 125 g ai/ha): 0 | Velvetleaf plant response rating (velvetleaf [2]; 500 g ai/ha): 0 | Plant response rating, Velvetleaf (velvetleaf [2]; [16]): 0 | Rice plant response rating (rice [3]): 0 | Barnyardgrass plant response rating (barnyardgrass [4]; [17]): 0 | Plant response rating, Barnyardgrass (barnyardgrass [4]; [18]): 10 | Barnyardgrass plant response rating (barnyardgrass [4]; [19]): 0 | Barnyardgrass plant response rating (barnyardgrass [4]; [20]): 10 | Plant response rating, Crabgrass, Large (large crabgrass [5]; [15]): 0 | Crabgrass, Large plant response rating (large crabgrass [5]; 125 g ai/ha): 0 | Crabgrass, Large plant response rating (large crabgrass [5]; 500 g ai/ha): 0 | Plant response rating, Crabgrass, Large (large crabgrass [5]; [16]): 0 | Crabgrass, Large plant response rating (large crabgrass [6]; [17]): 0 | Plant response rating, Crabgrass, Large (large crabgrass [6]; [18]): 0 | Crabgrass, Large plant response rating (large crabgrass [6]; [19]): 0 | Crabgrass, Large plant response rating (large crabgrass [6]; [20]): 30 | Plant response rating, Corn (corn; [15]): 0 | Corn plant response rating (corn; 125 g ai/ha): 0 | Corn plant response rating (corn; 500 g ai/ha): 0 | Plant response rating, Corn (corn; [16]): 0 | Blackgrass plant response rating (blackgrass; 125 g ai/ha): 0 | Blackgrass plant response rating (blackgrass; 500 g ai/ha): 0 | Morningglory plant response rating (morningglory [7]; [17]): 0 | Plant response rating, Morningglory (morningglory [7]; [18]): 10 | Morningglory plant response rating (morningglory [7]; [19]): 0 | Morningglory plant response rating (morningglory [7]; [20]): 5 | Sedge, Umbrella plant response rating [8]: 30 | Plant response rating, Rice (rice [9]; [15]): 0 | Plant response rating, Rice (rice [9]; [16]): 0 | Oat, Wild plant response rating (wild oat; 125 g ai/ha): 0 | Oat, Wild plant response rating (wild oat; 500 g ai/ha): 0 | Plant response rating, Cocklebur (cocklebur; [15]): 0 | Cocklebur plant response rating (cocklebur; 125 g ai/ha): 0 | Cocklebur plant response rating (cocklebur; 500 g ai/ha): 0 | Plant response rating, Cocklebur (cocklebur; [16]): 0 | Plant response rating, Barnyardgrass (barnyardgrass [10]; [15]): 0 | Barnyardgrass plant response rating (barnyardgrass [10]; 125 g ai/ha): 0 | Barnyardgrass plant response rating (barnyardgrass [10]; 500 g ai/ha): 0 | Plant response rating, Barnyardgrass (barnyardgrass [10]; [16]): 0 | Velvetleaf plant response rating (velvetleaf [11]; [17]): 20 | Plant response rating, Velvetleaf (velvetleaf [11]; [18]): 30 | Velvetleaf plant response rating (velvetleaf [11]; [20]): 5 | Velvetleaf plant response rating (velvetleaf [11]; [21]): 0 | Plant response rating, Foxtail, Giant (giant foxtail [12]; [15]): 0 | Foxtail, Giant plant response rating (giant foxtail [12]; 125 g ai/ha): 0 | Foxtail, Giant plant response rating (giant foxtail [12]; 500 g ai/ha): 0 | Plant response rating, Foxtail, Giant (giant foxtail [12]; [16]): 0 | Pigweed plant response rating (redroot pigweed; [17]): 20 | Plant response rating, Pigweed (redroot pigweed; [18]): 25 | Pigweed plant response rating (redroot pigweed; [20]): 10 | Pigweed plant response rating (redroot pigweed; [21]): 0 | Barnyardgrass plant response rating (barnyardgrass [13]): 0 | Wheat plant response rating (wheat): 0 | Plant response rating, Pigweed (pigweed; [15]): 0 | Pigweed plant response rating (pigweed; 125 g ai/ha): 0 | Pigweed plant response rating (pigweed; 500 g ai/ha): 0 | Plant response rating, Pigweed (pigweed; [16]): 0 | Foxtail, Giant plant response rating (giant foxtail [14]; [17]): 0 | Plant response rating, Foxtail, Giant (giant foxtail [14]; [18]): 20 | Foxtail, Giant plant response rating (giant foxtail [14]; [19]): 0 | Foxtail, Giant plant response rating (giant foxtail [14]; [20]): 10 | Plant response rating, Lambsquarters (lambsquarters; [15]): 0 | Lambsquarters plant response rating (lambsquarters; 125 g ai/ha): 0 | Lambsquarters plant response rating (lambsquarters; 500 g ai/ha): 0 | Plant response rating, Lambsquarters (lambsquarters; [16]): 0
